Data on 31 compounds can be found in patent publication US5554620A, “Substituted 6,11-ethano-6,11-dihydrobenzo[b] quinolizinium salts and compositions and methods of use thereof” (Sterling Winthrop Inc., priority 1994, dated 1996).

For this assay, the target named is PCP receptor. The assay is described as follows: [3H]TCP radioreceptor assay (binding to PCP recognition sites). On the set-up: species or system rat (male Sprague-Dawley, whole brain). The conditions noted are these: for pKi: [3H]TCP approx. 1 nM, rat brain membranes, mean of at least two determinations; for [3H]TCP percent inhibition @ 10 μm: inhibition of [3H]TCP binding at 10 μM. The procedure:
[^3 H]TCP Radioreceptor Assay
[^3 H]TCP binding to PCP recognition sites was performed as described by Vignon et al. Brain Research 1983, 280, 194-197. Male Sprague-Dawley rats were sacrificed by decapitation, and whole brains were homogenized in 10 volumes (wt/vol) of cold Tris-HCl buffer (50 mM, pH 7.7) using a Brinkmann Polytron (setting 6, 30 sec). The homogenate was centrifuged at 40,000×g for 10 min at 4° C. The supernatant was decanted, and the homogenization and centrifugation steps were repeated twice as described above. Following this, the pellet was resuspended in Tris-HCl (5 mM, pH 7.7) at a tissue concentration of 0.5-0.75 g/mL, and one mL aliquots were frozen at -70° C. until use. The binding characteristics for PCP recognition sites were not altered by the freezing of membrane suspensions.
On the day of the assay, membrane aliquots were thawed, resuspended in fresh 5 mM Tris-HCl buffer at a tissue concentration of 1 mg/mL, and stored on ice until use. Each assay tube contained 100 μl of [^3 H]TCP at a final concentration of approximately 1 nM, 100 μL of various concentrations of the compounds of interest, 500 μL of the tissue suspension and 300 μL of buffer to a final assay volume of 1 mL and a final protein concentration of 0.5 mg/tube. Non-specific binding was defined by addition of a final concentration of 100 μM PCP to blank tubes. All tubes were incubated at room temperature for 25 min before termination of the reaction by rapid filtration over Whatman GF/B glass fiber filters that had been presoaked in a solution of 0.5% polyethylenimine for at least 1 hr prior to use. Filters were washed with three 4 mL volumes of cold Tris buffer. Following addition of scintillation cocktail, the amount of bound radioactivity was determined by liquid scintillation spectrometry using a Beckman LS 5000TA liquid scintillation counter with an efficiency for tritium of approximately 55%. Inhibition constants (Ki values) were calculated using the EBDA/LIGAND program (McPherson, J. Pharmacol. Meth. 1985, 14, 213-228), purchased from ElsevierBiosoft, Inc. Results are reported as the Ki values (in nM) which are expressed as the mean of at least two separate determinations; or as a percent (%) inhibition of binding at 10 μM.

pKi: −log10 of the molar value.

As a reminder, the pKi is −log10 of the Ki, conventionally taken in molar units. Higher therefore signals a low Ki. `COc1cccc2c1C1c3cccc[n+]3C2CC1(c1ccccc1)c1ccccc1.[O-][Cl+3]([O-])([O-])[O-]` (stereo not shown) [25(c), 6,11-ethano-12,12-diphenyl-10-methoxy-6,11-dihydrobenzo[b]quinolizinium perchlorate]: the negative-log Ki (pKi) is 7.41.

In the case of `COc1ccc2c(c1)C1c3cccc[n+]3C2CC1(c1ccccc1)c1ccccc1` (stereo not shown) [27(E), 6,11-ethano-12,12-diphenyl-9-methoxy-6,111-dihydrobenzo[b]quinolizinium chloride 1/2 hydrate], the pKi was 7.98.

With `Oc1cccc2c1C1c3cccc[n+]3C2CC1(c1ccccc1)c1ccccc1` (stereo not shown) [28(c), 6,11-ethano-12,12-diphenyl-10-hydroxy-6,11-dihydrobenzo[b]quinolizinium chloride], the pKi was 7.93.

`COc1ccc(CN(c2ccc(C3(c4ccc(N(Cc5ccc(OC)cc5)S(C)(=O)=O)cc4)CC4c5ccccc5C3c3cccc[n+]34)cc2)S(C)(=O)=O)cc1` (stereo not shown) [29(c), 6,11-ethano-12,12-di[4-(N-p-methoxybenzyl-N-methylsulfonylamino)phenyl]-6,11-dihydrobenzo[b]quinolizinium perchlorate 1/2 ethyl acetate]: the “[3H]TCP percent inhibition @ 10 μm” value is reported as 31%.

Turning to `Cc1ccc(C2(c3ccc(C)cc3)CC3c4ccccc4C2c2cccc[n+]23)cc1.[Cl-]` (stereo not shown) [30(c), 6,11-ethano-12,12-di-(p-methylphenyl)-6,11-dihydrobenzo[b]quinolizinium chloride], the “[3H]TCP percent inhibition @ 10 μm” value was found to be 22%.

As to `Fc1ccc(C2(c3ccc(F)cc3)CC3c4ccccc4C2c2cccc[n+]23)cc1` (stereo not shown) [31(c), 6,11-ethano-12,12-di(p-fluorophenyl)-6,11-dihydrobenzo[b]-quinolizinium chloride], the pKi is 5.66.

Turning to `CC(C)Oc1cccc2c1C1c3cccc[n+]3C2CC1(c1ccccc1)c1ccccc1` (stereo not shown) [32(F), 6,11-ethano-12.12-diphenyl-10-isopropoxy-6,11-dihydrobenzo[b]quinoliziniumchloride], the negative logarithm of the Ki (pKi) is 6.33. This pKi is 0.67 log units higher than that of the compound before.

As to `Fc1cc(F)c2c(c1)C1CC(c3ccccc3)(c3ccccc3)C2c2cccc[n+]21` (stereo not shown) [33(c), 6,11-ethanol-12,12-diphenyl-8,10-difluoro-6,11-dihydrobenzo[b]quinolizinium chloride 1/4 hydrate], the pKi was 5.94.

As for `Oc1ccc2c(c1)C1c3cccc[n+]3C2CC1(c1ccccc1)c1ccccc1` (stereo not shown) [34(b), 6,11-ethano-12,12-diphenyl-9-hydroxy-6,11-dihydrobenzo[b]quinolizinium chloride], the pKi is 7.66.

Turning to `COc1cccc(C2(c3cccc(OC)c3)CC3c4ccccc4C2c2cccc[n+]23)c1` (stereo not shown) [35(c), 6,11-ethano-12,12-di(m-methoxyphenyl)-6,11-dihydrobenzo[b]quinolizinium chloride], the negative-log Ki (pKi) was 7.39.

For `Brc1cccc(C2(c3cccc(Br)c3)CC3c4ccccc4C2c2cccc[n+]23)c1` (stereo not shown) [36(c), 6,11-ethano-12,12-di(m-bromophenyl)-6,11-dihydrobenzo[b]quinolizinium chloride], the pKi is 6.73.

The compound `COc1cccc2c1C1c3cccc[n+]3C2(C)CC1(c1ccccc1)c1ccccc1` (stereo not shown) [37(E), 6,11-ethano-12,12-diphenyl-10-methoxy-6-methyl-6,11-dihydrobenzo[b]quinolizinium chloride] had a negative-log Ki (pKi) of 7.44.

Compound `CC12CC(c3ccccc3)(c3ccccc3)C(c3c(O)cccc31)c1cccc[n+]12` (stereo not shown) [38(c), 6,11-ethano-12,12-diphenyl-10-hydroxy-6-methyl-6,11-dihydrobenzo[b]quinolizinium chloride] showed a pKi of 7.78.

`c1cncc(C2(c3cccnc3)CC3c4ccccc4C2c2cccc[n+]23)c1` (stereo not shown) [42(E), 6,11-ethano-12,12-di(3-pyridyl)-6,11-dihydrobenzo[b]quinolizinium chloride]: the pKi is 5.64.

For the compound `Clc1ccc(C2(c3ccc(Cl)cc3)CC3c4ccccc4C2c2cccc[n+]23)cc1.F[P-](F)(F)(F)(F)F` (stereo not shown) [43(b), 6,11-ethano-12,12-di(p-chlorophenyl)-6,11-dihydrobenzo[b]quinolizinium hexafluorophosphate], the “[3H]TCP percent inhibition @ 10 μm” value was 45%.

As for `COc1ccc(C2(c3ccc(OC)cc3)CC3c4ccccc4C2c2cccc[n+]23)cc1` (stereo not shown) [44(b), 6,11-ethano-12,12-di(p-methoxyphenyl)-6,11-dihydrobenzo[b]quinolizinium hexafluorophosphate], the pKi is 4.55.

Regarding `FC(F)(F)c1ccc2c(c1)C1c3cccc[n+]3C2CC1(c1ccccc1)c1ccccc1` (stereo not shown) [45(E), 6,11-ethano-12,12-diphenyl-9-trifluoromethyl-6,11-dihydrobenzo[b]quinolizinium chloride 1/4 hydrate], the pKi is 6.31. This pKi lies 1.76 log units higher than the previous one.

`FC(F)(F)c1cccc(C2(c3cccc(C(F)(F)F)c3)CC3c4ccccc4C2c2cccc[n+]23)c1.[Cl-]` (stereo not shown) [46(c), 6,11-ethano-12,12-di(m-trifluoromethylphenyl)-6,11-dihydrobenzo[b]quinolizinium chloride]: the “[3H]TCP percent inhibition @ 10 μm” value is on record as 31%.

Take `[Cl-].c1ccc2c(c1)C1CC(c3ccncc3)(c3ccncc3)C2c2cccc[n+]21` (stereo not shown) [49(E), 6,11-ethano-12,12-di(4-pyridyl)-6,11-dihydrobenzo[b]quinolizinium chloride]: the “[3H]TCP percent inhibition @ 10 μm” value is recorded as 54%.

With `[O-][Cl+3]([O-])([O-])[O-].c1ccc2c(c1)C1CC(c3cocn3)(c3cocn3)C2c2cccc[n+]21` (stereo not shown) [53(g), 6,11-ethano-12,12-di(4-oxazolyl)-6,11-dihydrobenzo[b]quinolizinium perchlorate], the pKi is 7.03.

`Cc1cc[n+]2c(c1)C1c3ccccc3C2CC1(c1ccccc1)c1ccccc1.[O-][Cl+3]([O-])([O-])[O-]` (stereo not shown) [54(E), 6,11-ethano-12,12-diphenyl-2-methyl-6,11-dihydrobenzo[b]quinolizinium perchlorate] had a negative-log Ki (pKi) of 7.28.

`Clc1cccc(C2(c3cccc(Cl)c3)CC3c4ccccc4C2c2cccc[n+]23)c1` (stereo not shown) [55(b), 6,11-ethano-12,12-di(m-chlorophenyl)-6,11-dihydrobenzo[b]quinolizinium chloride] gave a negative logarithm of the Ki (pKi) of 6.98.

`CCCCC12CC(c3ccccc3)(c3ccccc3)C(c3ccccc31)c1cccc[n+]12.[O-][Cl+3]([O-])([O-])[O-]` (stereo not shown) [59(c), 6,11-ethano-12,12-diphenyl-6-butyl-6,11-dihydrobenzo[b]quinolizinium perchlorate] gave a pKi of 5.41. This pKi is 1.57 log units lower than that of the compound before.

In turn, `Brc1ccc(Br)c2c1C1CC(c3ccoc3)(c3ccoc3)C2c2cccc[n+]21.[O-][Cl+3]([O-])([O-])[O-]` (stereo not shown) [60(e), 6,11-ethano-12,12-di(3-furyl)-7,10-dibromo-6,11-dihydrobenzo[b]quinolizinium perchlorate] showed a negative logarithm of the Ki (pKi) of 6.46.

On to `c1ccc2c(c1)C1CC(c3nccs3)(c3nccs3)C2c2cccc[n+]21` (stereo not shown) [61(c), 6,11-ethao-12,12-di(2-thiazolyl)-6,11-dihydrobenzo[b]quinolizinium perchlorate], for which the negative-log Ki (pKi) is 7.77.

Take `[O-][Cl+3]([O-])([O-])[O-].c1ccc2c(c1)C1CC(c3cncs3)(c3cncs3)C2c2cccc[n+]21` (stereo not shown) [62(c), 6,11-ethano-12,12-di(5-thiazolyl)-6,11-dihydrobenzo[b]quinolizinium perchlorate]: the negative logarithm of the Ki (pKi) was 6.92.

For the compound `COc1cccc2c1C1c3cccc[n+]3C2CC1(c1ccoc1)c1ccoc1` (stereo not shown) [66(g), 6,11-ethano-12,12-di(3-furanyl)-10-methoxy-6,11-dihydrobenzo[b]quinolizinium chloride], the negative-log Ki (pKi) is 8.22.

Compound `COc1cccc(C2(c3cccc(OC)n3)CC3c4ccccc4C2c2cccc[n+]23)n1.[O-][Cl+3]([O-])([O-])[O-]` (stereo not shown) [67(e), 6,11-ethano-12,12-di-(6-methoxypyridin-2-yl)-6,11-dihydrobenzo[b]quinolizinium perchlorate] had a negative-log Ki (pKi) of 7.10.

`c1ccc2c(c1)C1CC(c3cnn[nH]3)(c3cnn[nH]3)C2c2cccc[n+]21` (stereo not shown) [70(F), 6,11-ethano-12.12-di-(5-1,2,3-triazoyl)6,11-dihydrobenzo[b]quinolizinium Chloride]: the pKi is 5.42.

`c1ccc2c(c1)C1CC(c3cc[nH]c3)(c3cc[nH]c3)C2c2cccc[n+]21` (stereo not shown) [71(F), 6,11-ethano-12,12-di(3-pyrrolyl)-6,11-dihydrobenzo[b]quinolizinium chloride] gave a pKi of 8.51.

In the case of `[O-][Cl+3]([O-])([O-])[O-].c1ccc(C2(c3ccccc3)CC3c4ccccc4C2c2cccc[n+]23)cc1` (stereo not shown) [111(a), 6,11-Ethano-12,12-diphenyl-6,11-dihydrobenzo[b]quinolizinium perchlorate], the negative-log Ki (pKi) was 8.22.
